Results as given in patent US5140018A, “1,3,2-benzodithiazole-1-oxide compounds” (Abbott Laboratories, priority 1991, dated 1992).
Values after ≈ are worked out from the molar mass of the structure shown.

What was measured:
Format in all cases: cell-based
[1] = test system: Candida tropicalis NRRL-Y-112; experiment: In vitro antifungal MIC, Candida tropicalis NRRL-Y-112; details: NRRLY112; Candida tropicalis NRRL-Y-112; 35°-37° C., 48 hours; read-out: MIC
Description: (§1) The in vitro antifungal activity of the compounds of the present invention against a variety of fungiwas determined as follow: Test medium was prepared by dissolving first 5 g of dextrose and then 6.7 g of Bacto Yeast Nitrogen Base® (commercially available from Difco Laboratories) in 100 mL of distilled water. The solution was filter-sterilized and diluted 1:10 with 0.01M pH 8.0 phosphate buffer solution, and the final pH of the medium adjusted to about pH 7.0 when necessary with either 0.1N hydrochloric acid solution of 0.1N sodium hydroxide solution. […] These concentrated stock solutions were diluted to a concentration of 200 μg/mL (twice the highest concentration desired for testing) with the test medium. Amphotericin B, similarly prepared, was used as a reference antifungal agent.
(§2) The test organisms were then inoculated into test tubes containing approximately 3 to 10 mL of test medium and the test tubes incubated overnight at 37° C. A sample of each overnight culture was placed in a test tube and diluted using the test medium until a reading of 95% transmittance was obtained in a conventional UV/visible spectrophotometer set to 560 nm. The adjusted cultures were then diluted 1:50 with test medium. These diluted cultures served as the inocula for the assays which follow and were used within 15 minutes of preparation.
(§3) Next, 2-fold serial dilutions of each test compound in test medium were prepared in a 96-well microtiter plate using calibrated microdiluters attached to an automatic (hand-held) diluter (available from Dynatech Laboratories).
(§4) Using sterile calibrated droppers or a multi-point dispenser, the diluted inoculum suspension was added to each of the wells in the plate. When inoculation was complete, the microtiter tray was covered with a plastic plate sealer to minimize evaporation. After the plate had been sealed, a hole was made above each well with a sterile 26-gauge syringe needle in order to allow gas exchange. If plate sealers were not available, the microtiter trays were stacked in groups of five or less with an empty tray on top. The microtiter trays were then incubated in a humidified chamber at 35°-37° C. for 48 hours or until growth was visible in the growth control wells.
(§5) The minimum inhibitory concentration (MIC) was defined as the lowest concentration of test compound yielding no growth, a slight haze or sparsely isolated colonies on the inoculum spot as compared to the growth control containing no test compound.

Candida albicans CCH 442 = experiment: In vitro antifungal MIC, Candida albicans CCH 442; details: CCH442; Candida albicans CCH 442; 35°-37° C., 48 hours; read-out: MIC
Description: as §1, §2, §3, §4, §5

[2] = test system: Aspergillus niger ATCC 16404; experiment: In vitro antifungal MIC, Aspergillus niger ATCC 16404; details: ATCC16404; Aspergillus niger ATCC 16404; 35°-37° C., 48 hours; read-out: MIC
Description: as §1, §2, §3, §4, §5

[3] = test system: Candida albicans ATCC 62376; experiment: In vitro antifungal MIC, Candida albicans ATCC 62376; details: ATCC62376; Candida albicans ATCC 62376; 35°-37° C., 48 hours; read-out: MIC
Description: as §1, §2, §3, §4, §5

Candida albicans 579A = experiment: In vitro antifungal MIC, Candida albicans 579A; details: Candida albicans 579A; 35°-37° C., 48 hours; read-out: MIC
Description: as §1, §2, §3, §4, §5

[4] = test system: Candida albicans ATCC 38247; experiment: In vitro antifungal MIC, Candida albicans ATCC 38247; details: ATCC38247; Candida albicans ATCC 38247; 35°-37° C., 48 hours; read-out: MIC
Description: as §1, §2, §3, §4, §5

Candida kefyr ATCC 28838 = experiment: In vitro antifungal MIC, Candida kefyr ATCC 28838; details: Kluyveromyces marxianus, ATCC28838; Candida kefyr ATCC 28838; 35°-37° C., 48 hours; read-out: MIC
Description: as §1, §2, §3, §4, §5

[5] = test system: Torulopsis glabrata ATCC 15545; experiment: In vitro antifungal MIC, Torulopsis glabrata ATCC 15545; details: Nakaseomyces glabratus, ATCC15545; Torulopsis glabrata ATCC 15545; 35°-37° C., 48 hours; read-out: MIC
Description: as §1, §2, §3, §4, §5

[6] = test system: Cryptococcus albidus ATCC 34140; experiment: In vitro antifungal MIC, Cryptococcus albidus ATCC 34140; details: Naganishia albida, ATCC34140; Cryptococcus albidus ATCC 34140; 35°-37° C., 48 hours; read-out: MIC
Description: as §1, §2, §3, §4, §5

[7] = test system: Candida albicans ATCC 10231; experiment: In vitro antifungal MIC, Candida albicans ATCC 10231; details: ATCC10231; Candida albicans ATCC 10231; 35°-37° C., 48 hours; read-out: MIC
Description: as §1, §2, §3, §4, §5

| SMILES | MIC [1] [µg/mL] | MIC (Candida albicans CCH 442) [µg/mL] | MIC [2] [µg/mL] | MIC [3] [µg/mL] | MIC (Candida albicans 579A) [µg/mL] | MIC [4] [µg/mL] | MIC (Candida kefyr ATCC 28838) [µg/mL] | MIC [5] [µg/mL] | MIC [6] [µg/mL] | MIC [7] [µg/mL] |
| --- | --- | --- | --- | --- | --- | --- | --- | --- | --- | --- |
| CN(C)CCCN1Sc2ccccc2[S+]1[O-] (stereo not drawn) [Example 23, 2-(3-(N,N-dimethylamino)-n-propyl)-1,3,2-benzodithiazole-1-oxide] | 50 (≈ 195 µM) | 50 (≈ 195 µM) | 12.5 (≈ 48.8 µM) | 50 (≈ 195 µM) | 50 (≈ 195 µM) | 12.5 (≈ 48.8 µM) | 3.12 (≈ 12.2 µM) | 50 (≈ 195 µM) | 12.5 (≈ 48.8 µM) | 50 (≈ 195 µM) |
| [O-][S+]1c2ccccc2SN1Cc1cccs1 (stereo not drawn) [Example 34, 2-(2-thienyl)methyl-1,3,2-benzodithiazole-1-oxide] | 50 (≈ 187 µM) | 0.78 (≈ 2.92 µM) | 0.39 (≈ 1.46 µM) | 0.78 (≈ 2.92 µM) | 0.78 (≈ 2.92 µM) | 1.56 (≈ 5.83 µM) | 0.78 (≈ 2.92 µM) | 50 (≈ 187 µM) | 6.25 (≈ 23.4 µM) | 1.56 (≈ 5.83 µM) |
| CCCCCCCCCCN1Sc2ccccc2[S+]1[O-] (stereo not drawn) [Example 8, 2-n-decyl-1,3,2-benzodithiazole-1-oxide] | 3.12 (≈ 10 µM) | 6.25 (≈ 20.1 µM) | 1.56 (≈ 5.01 µM) | 6.25 (≈ 20.1 µM) | 6.25 (≈ 20.1 µM) | 6.25 (≈ 20.1 µM) | 1.56 (≈ 5.01 µM) | 3.12 (≈ 10 µM) | 12.5 (≈ 40.1 µM) | 1.56 (≈ 5.01 µM) |
| CC(C)(C)CC(C)(C)N1Sc2ccccc2[S+]1[O-] (stereo not drawn) [Example 16, 2-(1,1,3,3-tetramethylbutyl)-1,3,2-benzodithiazole-1-oxide] | 12.5 (≈ 44.1 µM) | 1.56 (≈ 5.5 µM) | 3.12 (≈ 11 µM) | 6.25 (≈ 22 µM) | 3.12 (≈ 11 µM) | 1.56 (≈ 5.5 µM) | 0.78 (≈ 2.75 µM) | 6.25 (≈ 22 µM) | 6.25 (≈ 22 µM) | 6.25 (≈ 22 µM) |
| C=CCN1Sc2ccccc2[S+]1[O-] (stereo not drawn) [Example 10, 2-allyl-1,3,2-benzodithiazole-1-oxide] | 0.78 (≈ 3.69 µM) | 0.78 (≈ 3.69 µM) | 0.2 (≈ 0.946 µM) | 0.39 (≈ 1.85 µM) | 0.39 (≈ 1.85 µM) | 6.25 (≈ 29.6 µM) | 0.2 (≈ 0.946 µM) | 0.39 (≈ 1.85 µM) | 3.12 (≈ 14.8 µM) | 0.39 (≈ 1.85 µM) |
| CC(C)(C)CCN1Sc2ccccc2[S+]1[O-] (stereo not drawn) [Example 15] | 3.12 (≈ 12.2 µM) | 1.56 (≈ 6.11 µM) | 1.56 (≈ 6.11 µM) | 1.56 (≈ 6.11 µM) | 3.12 (≈ 12.2 µM) | 25 (≈ 97.9 µM) | 0.78 (≈ 3.05 µM) | 1.56 (≈ 6.11 µM) | 12.5 (≈ 48.9 µM) | 1.56 (≈ 6.11 µM) |
| CN(C)c1ccc(CN2Sc3ccccc3[S+]2[O-])cc1 (stereo not drawn) [Example 37, 2-(4-(dimethylamino)phenyl)methyl-1,3,2-benzodithiazole-1-oxide] | 6.25 (≈ 20.5 µM) | 6.25 (≈ 20.5 µM) | 3.12 (≈ 10.2 µM) | 6.25 (≈ 20.5 µM) | 3.12 (≈ 10.2 µM) | 3.12 (≈ 10.2 µM) | 1.56 (≈ 5.12 µM) | 6.25 (≈ 20.5 µM) | 12.5 (≈ 41.1 µM) | 1.56 (≈ 5.12 µM) |
| CC(C)(C)N1Sc2ccccc2[S+]1[O-] (stereo not drawn) [Example 14, 2-t-butyl-1,3,2-benzodithiazole-1-oxide] | 3.12 (≈ 13.7 µM) | 1.56 (≈ 6.86 µM) | 0.78 (≈ 3.43 µM) | 0.78 (≈ 3.43 µM) | 1.56 (≈ 6.86 µM) | 6.25 (≈ 27.5 µM) | 0.2 (≈ 0.88 µM) | 1.56 (≈ 6.86 µM) | 3.12 (≈ 13.7 µM) | 1.56 (≈ 6.86 µM) |
| CS(=O)(=O)OCCN1Sc2ccccc2[S+]1[O-] (stereo not drawn) [Example 19, O-(2-(1,3,2-benzodithiazole-2-yl-1-oxide)ethyl)methanesulfonate] | 25 (≈ 85.2 µM) | 100 (≈ 341 µM) | 12.5 (≈ 42.6 µM) | 100 (≈ 341 µM) | 50 (≈ 170 µM) | 100 (≈ 341 µM) | 1.56 (≈ 5.32 µM) | 6.25 (≈ 21.3 µM) | 12.5 (≈ 42.6 µM) | 50 (≈ 170 µM) |
| CN1Sc2ccccc2[S+]1[O-] (stereo not drawn) [Example 2, 2-methyl-1,3,2-benzodithiazole-1-oxide] | 1.56 (≈ 8.42 µM) | 1.56 (≈ 8.42 µM) | 3.12 (≈ 16.8 µM) | 0.78 (≈ 4.21 µM) | 1.56 (≈ 8.42 µM) |  | 1.56 (≈ 8.42 µM) | 0.78 (≈ 4.21 µM) | 3.12 (≈ 16.8 µM) | 1.56 (≈ 8.42 µM) |
